Laboratory results reported in ChEMBL document CHEMBL1158743, “Tenellones A and B from a Diaporthe sp.: two highly substituted benzophenone inhibitors of parasite cGMP-dependent protein kinase activity” (J Nat Prod, 2005).
In brackets after ≈: the same amount, converted by molar mass. Activity calls are given as the source filed them. The rule behind the calls is not given here.

Tests used:
[1] = target: cGMP-dependent protein kinase (Eimeria tenella, UniProt Q8MMZ8); experiment: Inhibition of Eimera tenella CGMP-dependent protein kinase by radiometric assay
[2] = tested on: Staphylococcus aureus; experiment: Antibacterial activity against Staphylococcus aureus; format: functional
[3] = tested on: Enterococcus faecium; experiment: Antibacterial activity against Enterococcus faecium; format: functional
[4] = tested on: Eimeria tenella; experiment: Antiparasitic activity against Eimera tenella infected in chickens given ad libitum at 100 ppm fed with diet; format: functional, organism-based
[5] = species: Gallus gallus; experiment: Toxicity to Eimera tenella infected chickens given ad libitum at 100 ppm; format: organism-based; details: chicken, in vivo, po
[6] = tested on: Toxoplasma gondii; experiment: Antiparasitic activity against Toxoplasma gondii infected in human foreskin fibroblasts assessed as beta-galactosidase activity after 5 days by whole cell assay; format: functional, organism-based; details: 120 h

Sequence of cGMP-dependent protein kinase (Q8MMZ8 whole entry): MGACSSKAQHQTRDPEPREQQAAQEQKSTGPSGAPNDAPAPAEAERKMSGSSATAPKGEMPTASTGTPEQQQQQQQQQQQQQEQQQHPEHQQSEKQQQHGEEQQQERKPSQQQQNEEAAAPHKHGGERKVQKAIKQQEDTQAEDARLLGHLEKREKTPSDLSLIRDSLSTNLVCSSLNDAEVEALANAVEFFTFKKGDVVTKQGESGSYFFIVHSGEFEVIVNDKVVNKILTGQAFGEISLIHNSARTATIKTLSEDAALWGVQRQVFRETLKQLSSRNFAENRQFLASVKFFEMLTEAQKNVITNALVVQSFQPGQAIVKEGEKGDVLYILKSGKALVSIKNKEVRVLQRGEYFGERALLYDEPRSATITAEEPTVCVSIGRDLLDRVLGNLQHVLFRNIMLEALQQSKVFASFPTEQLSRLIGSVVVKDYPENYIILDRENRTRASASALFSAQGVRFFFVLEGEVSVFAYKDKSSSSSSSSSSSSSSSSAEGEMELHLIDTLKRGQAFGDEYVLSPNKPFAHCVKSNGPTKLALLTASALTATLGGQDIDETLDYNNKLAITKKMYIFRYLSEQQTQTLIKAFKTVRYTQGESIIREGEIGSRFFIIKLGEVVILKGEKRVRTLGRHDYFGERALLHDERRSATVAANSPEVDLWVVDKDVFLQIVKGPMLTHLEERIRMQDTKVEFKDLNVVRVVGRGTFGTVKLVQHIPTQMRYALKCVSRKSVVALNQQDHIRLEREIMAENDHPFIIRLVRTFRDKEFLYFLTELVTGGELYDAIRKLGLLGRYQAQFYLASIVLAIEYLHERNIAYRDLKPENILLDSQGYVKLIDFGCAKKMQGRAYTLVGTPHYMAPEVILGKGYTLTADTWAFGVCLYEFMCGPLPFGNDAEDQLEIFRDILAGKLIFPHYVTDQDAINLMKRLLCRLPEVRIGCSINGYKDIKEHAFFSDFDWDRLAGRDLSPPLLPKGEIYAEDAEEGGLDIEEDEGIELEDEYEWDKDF

| IC50 [1] [µM] | SMILES | MIC [2] [µg/mL] | MIC [3] [µg/mL] | Activity [4] | Activity [5] | IC50 [6] [µM] |
| --- | --- | --- | --- | --- | --- | --- |
| < 0.001 | CN1CCC(c2cc(-c3ccncc3)c(-c3ccc(F)cc3)[nH]2)CC1 |  |  |  |  |  |
|  | COc1c(Cl)c(C)c(Cl)c(O)c1C(=O)c1c(C=O)c(O)cc(O)c1CC=C(C)C [PESTALONE] | 0.037 (≈ 0.0842 µM) | 0.078 (≈ 0.178 µM) |  |  |  |
| 12.6 | CC(C)=CCc1ccc(O)c(C=O)c1C(=O)c1cc(C)cc(OCC(O)C(C)(C)O)c1O (stereo not given) [TENELLONE A] |  |  | inactive | Non-toxic | 1.8 |
| 8.7 | CC(C)=CCc1ccc(O)c(C=O)c1C(=O)c1cc(C)cc2c1OC(C(C)(C)O)CO2 (stereo not given) [TENELLONE B] |  |  | inactive | Non-toxic |  |
